In patent publication US11130756B2, “[1,2,4]Triazolo[4,3-A]pyridinyl substituted indole compounds” (BRISTOL-MYERS SQUIBB COMPANY, priority 2017, dated 2021):

Experiments:
Assay type in all cases: cell-based
[1] = biological target: T1, human TLR7 (Homo sapiens, UniProt Q9NYK1); test: TLR7 inhibition reporter assay (HEK-Blue, SEAP); details: HEK-Blue cells overexpressing human TLR7, gardiquimod 7.5 μM, 22 hour incubation
T1 construct: host or cells: HEK-Blue cells
T1 sequence (Q9NYK1 27-1049): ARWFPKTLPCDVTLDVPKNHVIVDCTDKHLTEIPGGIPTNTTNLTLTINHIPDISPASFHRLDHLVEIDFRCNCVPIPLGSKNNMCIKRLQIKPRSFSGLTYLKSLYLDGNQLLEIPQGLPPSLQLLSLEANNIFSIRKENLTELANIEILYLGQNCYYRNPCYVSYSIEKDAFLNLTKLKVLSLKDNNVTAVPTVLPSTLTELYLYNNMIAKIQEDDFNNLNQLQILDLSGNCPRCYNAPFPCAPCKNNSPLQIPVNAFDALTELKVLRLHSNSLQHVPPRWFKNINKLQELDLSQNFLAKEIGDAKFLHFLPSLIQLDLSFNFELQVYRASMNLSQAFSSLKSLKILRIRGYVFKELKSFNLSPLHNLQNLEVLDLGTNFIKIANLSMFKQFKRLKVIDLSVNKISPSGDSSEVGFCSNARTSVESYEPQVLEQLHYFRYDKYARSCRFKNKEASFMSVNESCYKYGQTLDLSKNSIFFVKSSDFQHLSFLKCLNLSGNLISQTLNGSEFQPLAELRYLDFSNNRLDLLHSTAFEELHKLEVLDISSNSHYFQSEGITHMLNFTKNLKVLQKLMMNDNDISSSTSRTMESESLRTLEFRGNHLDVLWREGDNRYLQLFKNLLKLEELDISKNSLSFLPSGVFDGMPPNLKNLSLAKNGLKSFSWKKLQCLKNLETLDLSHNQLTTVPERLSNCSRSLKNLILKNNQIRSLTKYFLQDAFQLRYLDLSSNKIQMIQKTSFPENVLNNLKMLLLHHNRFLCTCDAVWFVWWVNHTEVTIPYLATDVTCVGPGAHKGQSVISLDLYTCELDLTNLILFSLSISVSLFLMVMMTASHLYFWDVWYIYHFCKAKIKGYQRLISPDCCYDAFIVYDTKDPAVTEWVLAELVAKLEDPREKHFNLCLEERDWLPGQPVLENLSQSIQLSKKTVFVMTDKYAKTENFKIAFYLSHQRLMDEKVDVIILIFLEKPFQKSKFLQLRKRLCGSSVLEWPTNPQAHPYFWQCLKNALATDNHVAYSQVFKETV
In short: (§1)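 HEK-Blue cells overexpressing human TLR7, TLR8 or TLR9 carry a SEAP reporter driven by NF-κB/AP-1 sites. Compounds (0.05 nM–50 μM) were preincubated 30 min at room temperature, then cells were stimulated with gardiquimod 7.5 μM (TLR7), R848 15.9 μM (TLR8) or ODN2006 5 nM (TLR9) for 22 h at 37 °C.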

[2] = biological target: T2, human TLR9 (Homo sapiens, UniProt Q9NR96); test: TLR9 inhibition reporter assay (HEK-Blue, SEAP); details: HEK-Blue cells overexpressing human TLR9, ODN2006 5 nM, 22 hour incubation
T2 construct: host or cells: HEK-Blue cells
T2 sequence (Q9NR96 26-1032): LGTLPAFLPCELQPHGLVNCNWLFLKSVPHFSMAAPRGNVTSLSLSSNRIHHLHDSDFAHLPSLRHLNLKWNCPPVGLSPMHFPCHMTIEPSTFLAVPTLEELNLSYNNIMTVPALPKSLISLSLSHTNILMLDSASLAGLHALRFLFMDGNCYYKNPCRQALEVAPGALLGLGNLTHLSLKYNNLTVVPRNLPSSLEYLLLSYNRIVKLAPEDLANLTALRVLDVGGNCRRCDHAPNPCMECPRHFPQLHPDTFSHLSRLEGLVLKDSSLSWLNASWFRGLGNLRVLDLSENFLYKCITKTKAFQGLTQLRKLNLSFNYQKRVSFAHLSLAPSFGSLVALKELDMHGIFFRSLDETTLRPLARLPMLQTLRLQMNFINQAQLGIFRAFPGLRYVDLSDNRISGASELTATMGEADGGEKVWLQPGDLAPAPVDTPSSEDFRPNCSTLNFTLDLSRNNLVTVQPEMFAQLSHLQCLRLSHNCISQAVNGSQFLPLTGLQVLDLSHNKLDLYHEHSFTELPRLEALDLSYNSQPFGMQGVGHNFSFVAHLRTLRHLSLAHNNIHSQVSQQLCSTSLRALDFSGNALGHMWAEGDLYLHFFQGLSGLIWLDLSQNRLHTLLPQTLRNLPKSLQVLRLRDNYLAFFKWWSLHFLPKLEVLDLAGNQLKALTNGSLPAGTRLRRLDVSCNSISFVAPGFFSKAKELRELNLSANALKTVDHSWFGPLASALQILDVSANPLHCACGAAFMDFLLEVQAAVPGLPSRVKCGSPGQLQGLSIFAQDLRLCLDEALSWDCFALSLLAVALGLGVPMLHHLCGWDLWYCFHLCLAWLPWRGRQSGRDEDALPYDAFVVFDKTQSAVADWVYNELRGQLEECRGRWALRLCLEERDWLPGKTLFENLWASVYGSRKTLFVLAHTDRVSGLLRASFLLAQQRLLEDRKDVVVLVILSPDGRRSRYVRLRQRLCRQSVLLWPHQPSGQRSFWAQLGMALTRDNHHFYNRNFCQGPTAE
In short: as §1

[3] = biological target: T3, human TLR8 (Homo sapiens, UniProt Q9NR97); test: TLR8 inhibition reporter assay (HEK-Blue, SEAP); details: HEK-Blue cells overexpressing human TLR8, R848 15.9 μM, 22 hour incubation
T3 construct: host or cells: HEK-Blue cells
T3 sequence (Q9NR97 27-1041): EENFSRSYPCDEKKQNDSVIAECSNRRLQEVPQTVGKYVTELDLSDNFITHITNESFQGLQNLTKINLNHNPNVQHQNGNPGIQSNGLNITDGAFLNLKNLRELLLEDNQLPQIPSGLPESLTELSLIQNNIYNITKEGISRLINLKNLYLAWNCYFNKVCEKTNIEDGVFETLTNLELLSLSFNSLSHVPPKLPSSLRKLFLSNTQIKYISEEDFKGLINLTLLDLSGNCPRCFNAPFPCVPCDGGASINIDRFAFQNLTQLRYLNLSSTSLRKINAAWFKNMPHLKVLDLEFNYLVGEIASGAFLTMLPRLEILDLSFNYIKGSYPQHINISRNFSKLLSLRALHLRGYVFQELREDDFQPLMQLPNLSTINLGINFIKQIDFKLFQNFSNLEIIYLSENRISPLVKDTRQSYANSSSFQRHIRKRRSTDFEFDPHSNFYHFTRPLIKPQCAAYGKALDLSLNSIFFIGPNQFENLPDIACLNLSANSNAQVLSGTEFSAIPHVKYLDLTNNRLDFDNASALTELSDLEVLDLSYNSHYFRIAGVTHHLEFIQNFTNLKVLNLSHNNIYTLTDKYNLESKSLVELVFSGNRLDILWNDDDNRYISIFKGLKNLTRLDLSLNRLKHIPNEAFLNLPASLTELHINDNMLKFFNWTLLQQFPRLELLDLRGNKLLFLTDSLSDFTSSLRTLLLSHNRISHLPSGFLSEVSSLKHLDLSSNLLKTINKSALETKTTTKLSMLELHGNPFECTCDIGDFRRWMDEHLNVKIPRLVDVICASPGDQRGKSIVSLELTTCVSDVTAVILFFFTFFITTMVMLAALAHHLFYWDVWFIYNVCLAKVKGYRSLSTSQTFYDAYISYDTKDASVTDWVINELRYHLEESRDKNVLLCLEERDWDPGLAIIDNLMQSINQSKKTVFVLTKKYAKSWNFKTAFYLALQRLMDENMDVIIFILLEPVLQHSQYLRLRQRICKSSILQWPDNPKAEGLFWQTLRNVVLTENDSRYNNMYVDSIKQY
In short: as §1

Row | IC50 [1] | IC50 [2] | IC50 [3] | Structure (SMILES)
1 | 60.3 nM | 10100 nM | 16.6 nM | Cc1nnc2ccc(-c3[nH]c4ccc(C5CCN(C6COC6)CC5)cc4c3C(C)C)cn12 [Example 67, 6-(3-isopropyl-5-(1-(oxetan-3-yl)piperidin-4-yl)-1H-indol-2-yl)-3-methyl-[1,2,4]triazolo[4,3-a]pyridine]
2 | 12.7 nM | 1130 nM | 1.8 nM | Cc1cc(-c2[nH]c3ccc(C4CCN(Cc5ccn(C)n5)CC4)cc3c2C(C)C)cn2c(C)nnc12 [Example 71, 6-(3-isopropyl-5-(1-((1-methyl-1H-pyrazol-3-yl)methyl)piperidin-4-yl)-1H-indol-2-yl)-3,8-dimethyl-[1,2,4]triazolo[4,3-a]pyridine]
3 | 11.8 nM | 7870 nM | 11.7 nM | Cc1cc(-c2[nH]c3ccc(C4CCN(C5COC5)CC4)cc3c2C(C)C)cn2c(C)nnc12 [Example 72, 6-(3-isopropyl-5-(1-(oxetan-3-yl)piperidin-4-yl)-1H-indol-2-yl)-3,8-dimethyl-[1,2,4]triazolo[4,3-a]pyridine]
4 | 20.4 nM | 562 nM | 1.9 nM | Cc1cc(-c2[nH]c3ccc(C4CCN(C5CCOCC5)CC4)cc3c2C(C)C)cn2c(C)nnc12 [Example 73, 6-(3-isopropyl-5-(1-(tetrahydro-2H-pyran-4-yl)piperidin-4-yl)-1H-indol-2-yl)-3,8-dimethyl-[1,2,4]triazolo [4,3-a]pyridine]
5 | 1.2 nM | 908 nM | 1.7 nM | Cc1cc(-c2[nH]c3ccc(C4CCN(Cc5ccn(C)n5)CC4)cc3c2C(C)C)cn2cnnc12 [Example 74, 6-(3-isopropyl-5-(1-((1-methyl-1H-pyrazol-3-yl)methyl)piperidin-4-yl)-1H-indol-2-yl)-8-methyl-[1,2,4]triazolo[4,3-a]pyridine]

Continued, compound first:

Row | Structure (SMILES) | IC50 [1] | IC50 [2] | IC50 [3]
6 | Cc1cc2nncn2cc1-c1[nH]c2ccc(C3CCN(C4CCOCC4)CC3)cc2c1C(C)C [Example 68, 6-(3-isopropyl-5-(1-(tetrahydro-2H-pyran-4-yl)piperidin-4-yl)-1H-indol-2-yl)-7-methyl-[1,2,4]triazolo[4,3-a] pyridine] | 20.7 nM | 1250 nM | 139 nM
7 | Cc1cc(-c2[nH]c3ccc(C4CCN(C5CCOCC5)CC4)cc3c2C(C)C)cn2cnnc12 [Example 69, 6-(3-isopropyl-5-(1-(tetrahydro-2H-pyran-4-yl)piperidin-4-yl)-1H-indol-2-yl)-8-methyl-[1,2,4]triazolo[4,3-a]pyridine] | 0.6 nM | 1040 nM | 3 nM
8 | Cc1c(-c2[nH]c3ccc(C4CCN(C5CCOCC5)CC4)cc3c2C(C)C)ccc2nncn12 [Example 70, 6-(3-isopropyl-5-(1-(tetrahydro-2H-pyran-4-yl)piperidin-4-yl)-1H-indol-2-yl)-5-methyl-[1,2,4]triazolo[4,3-a]pyridine] | 83.5 nM | 1070 nM | 10.8 nM
9 | Cc1c(-c2[nH]c3ccc(C4CCN(C5COC5)CC4)cc3c2C(C)C)cn2cnnc2c1C [Example 75, 6-(3-isopropyl-5-(1-(oxetan-3-yl)piperidin-4-yl)-1H-indol-2-yl)-7,8-dimethyl-[1,2,4]triazolo[4,3-a]pyridine] | 3.3 nM | 23800 nM | 21.7 nM
10 | Cc1cc(-c2[nH]c3ccc(C4CCN(C5COC5)CC4)cc3c2C(C)C)c(C)n2cnnc12 [Example 76, 6-(3-isopropyl-5-(1-(oxetan-3-yl)piperidin-4-yl)-1H-indol-2-yl)-5,8-dimethyl-[1,2,4]triazolo[4,3-a]pyridine] | 106 nM | 16100 nM | 13.1 nM
11 | Cc1cc(-c2[nH]c3ccc(C4CCN(C5CCOCC5)CC4)cc3c2C(C)C)c(C)n2cnnc12 [Example 77, 6-(3-isopropyl-5-(1-(tetrahydro-2H-pyran-4-yl)piperidin-4-yl)-1H-indol-2-yl)-5,8-dimethyl-[1,2,4]triazolo[4,3-a]pyridine] | 55.9 nM | 4190 nM | 3.6 nM
